The source of these data is US20080207634A1, “Chemical Compounds” (priority 2004, published 2008).

SMILES strings stand for the structures.

One series has as its system T-tropic HIV. Conditions: patients that are dual tropic or with only the T-tropic form of the virus; cited from earlier work.
The next series concerns the target T1, human CXCR4 (Homo sapiens, UniProt P61073).
T1 construct: expressed in transfected cells; host or cells: HEK-293 cells (stably expressing human macrophage scavenging receptor) transduced with human CXCR4 BacMam and Gqi5 BacMam
In words: Functional FLIPR assay (block of SDF-1 alpha induced [Ca2+]i change). As to conditions: HEK-293 cells with human CXCR4 BacMam and Gqi5 BacMam; antagonism of SDF-1 alpha; read-out: Functional assay (pIC50) (converted). Type of series: cell-based. As to the method: Human embryonic kidney (HEK-293) cells were maintained and harvested as described above. Cells were plated in 96-well, black clear bottom, poly-lysine coated plates at a concentration of 40,000 cells per well in a final volume of 100 ul containing human CXCR4BacMam (MOI=25) and Gqi5 BacMam (MOI=12.5). The cells were incubated at 37° C., 5% CO2, 95% humidity for 24 h to allow for protein expression.
After the required incubation time the cells were washed once with 50 ul of fresh serum-free DMEM/F12 media containing probenicid. 50 ul of dye solution was then added to the cells (Calcium Plus Assay Kit Dye; Molecular Devices) was dissolved in 200 ml of the above probenicid/BSA containing media and incubated for 1 h. Cell plates were transferred to a Fluorometric Imaging Plate Reader (FLIPR). Upon addition the effect of the compounds on the change in [Ca^2+]i was examined to determine if the compounds were agonists or antagonists (ability to block SDF-1 alpha activity) at the CXCR4 receptor. IC50 values are determined and pKb values are calculated using the Leff and Dougall equation: KB═IC50/((2+([agonist]/EC50̂b) ̂1/b−1) Where IC50 is that defined by the antagonist concentration-response curve [agonist] is the EC80 concentration of agonist used EC50 is that defined by the agonist concentration-response curve b is the slope of the agonist concentration-response curve.

Series [1] is described as follows: Cell/cell fusion assay (luciferase). It is filed as cell-based. As to conditions: Homo sapiens, HEK293; 24 h incubation, luciferase readout; read-out: Fusion assay (pIC50) (converted). The text has this: The complete coding sequences of HIV-1 tat (GenBank Accession No. X07861) and rev (GenBank Accession No. M34378) were cloned into pcDNA3.1 expression vectors containing G418 and hygromycin resistance genes, respectively. The complete coding sequence of the HIV-1 (HXB2 strain) gp160 envelope gene (nucleotide bases 6225-8795 of GenBank Accession No. K03455) was cloned into plasmid pCRII-TOPO. The three HIV genes were additionally inserted into the baculovirus shuttle vector, pFastBacMam1, under the transcriptional control of the CMV promoter. A construction of the pHIV—I LTR containing mutated NFkB sequences linked to the luciferase reporter gene was prepared by digesting pcDNA3.1, containing the G418 resistance gene, with Nru I and Bam HI to remove the CMV promoter. LTR-luc was then cloned into the Nru I/Bam HI sites of the plasmid vector. Plasmid preparations were performed after the plasmids were amplified in Escherichia coli strain DH5-alpha. The fidelity of the inserted sequences was confirmed by double-strand nucleotide sequencing using an ABI Prism Model 377 automated sequencer.
Recombinant BacMam baculoviruses were constructed from pFastBacMam shuttle plasmids by using the bacterial cell-based Bac-to-Bac system. Viruses were propagated in Sf9 (Spodoptera frugiperda) cells cultured in Hink's TNM-FH Insect media supplemented with 10% (v/v) fetal bovine serum and 0.1% (v/v) pluronic F-68 according to established protocols.
Human osteosarcoma (HOS) cells that naturally express human CXCR4 were transfected with human CCR5, human CD4 and the pHIV-LTR-luciferase plasmid using FuGENE 6 transfection reagent. Single cells were isolated and grown under selection condition in order to generate a stable HOS (hCXCR4/hCCR5/hCD4/pHIV-LTR-luciferase) clonal cell line. The cells were maintained in Dulbeccos modified Eagles media supplemented with 10% fetal calf serum (FCS), G418 (400 ug/ml), puromycin (1 ug/ml), mycophenolic acid (40 ug/ml), xanthine (250 ug/ml) and hypoxanthine (13.5 ug/ml) to maintain a selection pressure for cells expressing the LTR-luciferase, hCCR5 and hCD4, respectively. Human embryonic kidney (HEK-293) cells stably transfected to express the human macrophage scavenging receptor (Class A, type 1; GenBank Accession No. D90187), were maintained in DMEM/F-12 media (1:1) supplemented with 10% FCS and 1.5 ug/ml puromycin. The expression of this receptor by the HEK-293 cells enhances their ability to stick to tissue culture treated plasticware.
HEK-293 cells were harvested using enzyme-free cell dissociation buffer. The cells were resuspended in DMEM/F-12 media supplemented with 10% FCS and 1.5 ug/ml and counted. […]
Following the 24 h incubation, total cellular luciferase activity was measured using the LucLite Plus assay kit (Packard, Meridien, Conn.). […]

Series [2] in a line: Compound cytotoxicity in the absence of virus (CellTiter-Glo). Type of series: cell-based. Conditions: human; HOS cells, no virus; read-out: Cytotox (pIC50) (converted). As to the method: (§1) Compounds were profiled against two HIV-1 viruses, the M-tropic (CCR5 utilizing) Ba-L strain and the T-tropic (CXCR4 utilizing) IIIB strain. Both viruses were propagated in human peripheral blood lymphocytes. Compounds were tested for there ability to block infection of the HOS cell line (expressing hCXCR4/hCCR5/hCD4/pHIV-LTR-luciferase) by either HIV-1 Ba-L or HIV-1 IIIB. Compound cytotoxicity was also examined in the absence of virus addition.
(§2) HOS cells (expressing hCXCR4/hCCR5/hCD4/pHIV-LTR-luciferase) were harvested and diluted in Dulbeccos modified Eagles media supplemented with 2% FCS and non-essential amino acid to a concentration of 60,000 cells/ml. The cells were plated into 96-well plates (100 ul per well) and the plates were placed in a tissue culture incubator (37° C.; 5% CO2/95% air) for a period of 24 h.
(§3) Subsequently, 50 ul of the desired drug solution (4 times the final concentration) was added to each well and the plates were returned to the tissue culture incubator (37° C.; 5% CO2/95% air) for 1 h. Following this incubation 50 ul of diluted virus was added to each well (approximately 2 million RLU per well of virus). The plates were returned to the tissue culture incubator (37° C.; 5% CO2/95% air) and were incubated for a further 96 h.
(§4) Following this incubation the endpoint for the virally infected cultures was quantified following addition of Steady-Glo Luciferase assay system reagent (Promega, Madison, Wis.). Cell viability or non-infected cultures was measured using a CellTiter-Glo luminescent cell viability assay system (Promega, Madison, Wis.). All luminescent readouts are performed on a Topcount luminescence detector (Packard, Meridien, Conn.).

The subject of series [3] is HIV-1 IIIB (T-tropic, CXCR4 utilizing). In words: HOS HIV-1 infectivity assay, IIIB strain. Conditions: Human immunodeficiency virus 1; HOS cells infected with HIV-1 IIIB, 96 h, luciferase; read-out: HOS (3B). Type of series: cell-based. How it is done: as §1, §2, §3, §4
The next series deals with HIV. In words: HOS HIV anti-infectivity assay (strain not stated). Type of series: cell-based. Conditions: Human immunodeficiency virus 1, activity level class, read-out: Antiviral acitivity. How it is done:
as §1, §2, §3, §4

T1 sequence (P61073 whole entry): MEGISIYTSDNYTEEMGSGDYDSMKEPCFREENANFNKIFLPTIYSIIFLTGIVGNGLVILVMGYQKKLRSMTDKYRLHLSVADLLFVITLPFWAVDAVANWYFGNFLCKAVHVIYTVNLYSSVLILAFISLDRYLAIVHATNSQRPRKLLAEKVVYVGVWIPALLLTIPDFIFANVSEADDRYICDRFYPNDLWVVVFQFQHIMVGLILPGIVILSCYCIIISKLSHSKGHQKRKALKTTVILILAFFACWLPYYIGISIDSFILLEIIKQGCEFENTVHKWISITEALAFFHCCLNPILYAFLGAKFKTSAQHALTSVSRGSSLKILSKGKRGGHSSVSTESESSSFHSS

As to `c1cc(CN2CCCNCCNCCCNCC2)ccc1CN1CCCNCCNCCCNCC1` [AMD-3100], the “T-tropic HIV viral load” value in the series with T-tropic HIV is listed as “significantly reduce T-tropic HIV viral load”.
Consider `CN(Cc1cn2c(F)cccc2n1)C1CCOc2cccnc21` (stereo not shown) [Example 2, N-[(5-Fluoroimidazo[1,2-a]pyridin-2-yl)methyl]-N-methyl-3,4-dihydro-2H-pyrano[3,2-b]pyridin-4-amine], for which the IC50 at human CXCR4 is over 10 µM; in series [1] it was over 10 µM; in series [3] it was over 20 µM. Further, the IC50 at 97 h in series [2] was over 10 µM.
As to `CN1CCN(c2cccc3nc(CN(C)C4CCOc5cccnc54)cn23)CC1` (stereo not shown) [Example 3, N-Methyl-N-{[5-(4-methyl-1-piperazinyl)imidazo[1,2-a]pyridin-2-yl]methyl}-3,4-dihydro-2H-pyrano[3,2-b]pyridin-4-amine], the IC50 is 0.00692 µM at human CXCR4, 0.00263 µM in series [1], 0.017 µM in series [3] and under 0.1 µM with HIV. Besides, the IC50 at 97 h in series [2] was over 10 µM.
`CN(Cc1cn2c(N3CCNCC3)cccc2n1)C1CCOc2cccnc21` (stereo not shown) [Example 4, N-Methyl-N-{[5-(1-piperazinyl)imidazo[1,2-a]pyridin-2-yl]methyl}-3,4-dihydro-2H-pyrano[3,2-b]pyridin-4-amine]: the IC50 was 0.0251 µM on human CXCR4, 0.0269 µM in series [1], 0.034 µM in series [3] and under 0.1 µM in the series with HIV. Besides, the IC50 at 97 h in series [2] is over 10 µM.
As to `CN(C)CCN(C)c1cccc2nc(CN(C)C3CCOc4cccnc43)cn12` (stereo not shown) [Example 5], the IC50 at human CXCR4 was 0.0692 µM; in series [1], 0.0617 µM; in series [3], 0.061 µM; in the series on HIV it was under 0.1 µM. Besides, in series [2], the IC50 at 97 h is over 10 µM.
In the case of `CN(Cc1cn2c(N3CCNC(=O)C3)cccc2n1)[C@H]1CCOc2cccnc21` [Example 7, 4-(2-{[(4S)-3,4-Dihydro-2H-pyrano[3,2-b]pyridin-4-yl(methyl)amino]methyl}imidazo[1,2-a]pyridin-5-yl)-2-piperazinone], in the series with HIV, the IC50 lay in the range of 0.5 to 10 µM.
In the case of `CC(C)N1CCN(c2cccc3nc(CN(C)[C@H]4CCOc5cccnc54)cn23)CC1` [Example 8, (4S)—N-Methyl-N-({5-[4-(1-methylethyl)-1-piperazinyl]imidazo[1,2-a]pyridin-2-yl}methyl)-3,4-dihydro-2H-pyrano[3,2-b]pyridin-4-amine], in the series on HIV, the IC50 was under 0.1 µM.
`CN(C)C1CCN(c2cccc3nc(CN(C)[C@H]4CCOc5cccnc54)cn23)C1` (stereo partly drawn) [Example 9, (4S)—N-({5-[3-(Dimethylamino)-1-pyrrolidinyl]imidazo[1,2-a]pyridin-2-yl}methyl)-N-methyl-3,4-dihydro-2H-pyrano[3,2-b]pyridin-4-amine]: the IC50 in the series with HIV was under 0.1 µM.
Turning to `CN(Cc1cn2c(N3CCC(N)CC3)cccc2n1)[C@H]1CCOc2cccnc21` [Example 10, (4S)—N-{[5-(4-Amino-1-piperidinyl)imidazo[1,2-a]pyridin-2-yl]methyl}-N-methyl-3,4-dihydro-2H-pyrano[3,2-b]pyridin-4-amine], in the series on HIV, the IC50 was under 0.1 µM.
`CN(Cc1cn2c(N3CCC(N)C3)cccc2n1)[C@H]1CCOc2cccnc21` (stereo partly drawn) [Example 11, (4S)—N-{[5-(3-Amino-1-pyrrolidinyl)imidazo[1,2-a]pyridin-2-yl]methyl}-N-methyl-3,4-dihydro-2H-pyrano[3,2-b]pyridin-4-amine]: the IC50 with HIV was under 0.1 µM.
Turning to `CN1CCC(N(C)c2cccc3nc(CN(C)C4CCOc5cccnc54)cn23)C1` (stereo not shown) [Example 12, N-Methyl-N-({5-[methyl(1-methyl-3-pyrrolidinyl)amino]imidazo[1,2-a]pyridin-2-yl}methyl)-3,4-dihydro-2H-pyrano[3,2-b]pyridin-4-amine], the IC50 in the series with HIV is under 0.1 µM.
For the compound `CN1CCN(c2cccc3nc(CN(C)[C@H]4CCOc5cccnc54)cn23)CC1` [Example 13, (4S)—N-Methyl-N-{[5-(4-methyl-1-piperazinyl)imidazo[1,2-a]pyridin-2-yl]methyl}-3,4-dihydro-2H-pyrano[3,2-b]pyridin-4-amine], the IC50 in the series on HIV was under 0.1 µM.
Consider `CN1CCN(c2cccc3nc(CN(C)C4CCOc5cccnc54)c(CO)n23)CC1` (stereo not shown) [Example 14, [2-{[3,4-dihydro-2H-pyrano[3,2-b]pyridin-4-yl(methyl)amino]methyl}-5-(4-methyl-1-piperazinyl)imidazo[1,2-a]pyridin-3-yl]methanol], for which the IC50 in the series with HIV was under 0.1 µM.
